Values of other authors as cited in patent US4933274A, “Process for detecting genetic susceptibility to cancer” (United States of America Represented by the Secretary of …, priority 1988, dated 1990).

Key:
normal cells = conditions: ara-C 50 μM added to normal cells following irradiation
x-irradiated XP-A cells = conditions: ara-C added to x-irradiated XP-A (xeroderma pigmentosum group A) cells

## Nc1ccn([C@@H]2O[C@H](CO)[C@@H](O)[C@@H]2O)c(=O)n1 [ara-C, β-cytosine arabinoside]
Normal cells
  frequency of chromatid damage: enhances the frequency of chromatid damage to the level observed in the irradiated cancer-prone cells
x-irradiated XP-A cells
  chromatid damage: no effect on chromatid damage
